Details: Liquid, Vibrating tube method

FC(C(F)(F)F)C(F)(F)F [1,1,1,2,3,3,3-heptafluoropropane]
Details	mass density [kg/m3]
323.14 K, 26341 kPa	1449.9
323.14 K, 26367 kPa	1450.1
323.14 K, 26395 kPa	1450.2
323.14 K, 26427 kPa	1450.3
323.14 K, 26451 kPa	1450.5
323.14 K, 26475 kPa	1450.5
323.14 K, 26513 kPa	1450.7
323.14 K, 26548 kPa	1450.8
323.14 K, 26575 kPa	1450.8
323.14 K, 26605 kPa	1451
323.14 K, 26630 kPa	1451.2
323.14 K, 26654 kPa	1451.3
323.14 K, 26689 kPa	1451.4
323.14 K, 26725 kPa	1451.6
323.14 K, 26749 kPa	1451.6
323.14 K, 26779 kPa	1451.8
323.14 K, 26810 kPa	1451.9
323.14 K, 26834 kPa	1451.9
323.14 K, 26866 kPa	1452.2
323.14 K, 26907 kPa	1452.2
323.14 K, 26931 kPa	1452.3
323.14 K, 26964 kPa	1452.5
323.14 K, 26991 kPa	1452.7
323.14 K, 27019 kPa	1452.7
323.14 K, 27049 kPa	1452.9
323.14 K, 27086 kPa	1452.9
323.14 K, 27111 kPa	1453.1
323.14 K, 27141 kPa	1453.2
323.14 K, 27170 kPa	1453.4
323.14 K, 27208 kPa	1453.4
323.14 K, 27239 kPa	1453.6
323.14 K, 27261 kPa	1453.7
323.14 K, 27301 kPa	1453.9
323.14 K, 27337 kPa	1453.9
323.14 K, 27364 kPa	1454.2
323.14 K, 27407 kPa	1454.4
323.14 K, 27446 kPa	1454.5
323.14 K, 29221 kPa	1461.5
323.14 K, 29254 kPa	1461.6
323.14 K, 29283 kPa	1461.7
323.14 K, 29320 kPa	1461.9
323.14 K, 29357 kPa	1462
323.14 K, 29386 kPa	1462.2
323.14 K, 29420 kPa	1462.2
323.14 K, 29450 kPa	1462.4
323.14 K, 29481 kPa	1462.5
323.14 K, 29512 kPa	1462.7
323.14 K, 29551 kPa	1462.8
323.14 K, 29581 kPa	1462.9
323.14 K, 29617 kPa	1463.1
323.14 K, 29647 kPa	1463.3
323.14 K, 29673 kPa	1463.3
323.14 K, 29712 kPa	1463.4
323.14 K, 30912 kPa	1468
323.14 K, 30939 kPa	1468.2
323.14 K, 30970 kPa	1468.1
323.14 K, 31016 kPa	1468.3
323.14 K, 31057 kPa	1468.4
323.14 K, 31085 kPa	1468.6
323.14 K, 31126 kPa	1468.7
323.14 K, 31158 kPa	1468.9
323.14 K, 31190 kPa	1468.9
323.14 K, 31227 kPa	1469.2
323.14 K, 31260 kPa	1469.2
323.14 K, 31289 kPa	1469.4
323.14 K, 31322 kPa	1469.5
323.14 K, 31350 kPa	1469.7
323.14 K, 31393 kPa	1469.8
323.14 K, 31427 kPa	1469.8
323.14 K, 31456 kPa	1469.9
323.14 K, 31496 kPa	1470.1
323.14 K, 31525 kPa	1470.2
323.14 K, 31560 kPa	1470.3
323.14 K, 31593 kPa	1470.5
323.14 K, 31631 kPa	1470.6
323.14 K, 31664 kPa	1470.7
323.14 K, 31692 kPa	1470.8
323.14 K, 31727 kPa	1470.8
323.14 K, 31759 kPa	1471.1
323.14 K, 31798 kPa	1471.2
323.14 K, 31833 kPa	1471.3
323.14 K, 31867 kPa	1471.5
323.14 K, 31900 kPa	1471.6
323.14 K, 31935 kPa	1471.8
323.14 K, 31970 kPa	1471.9
323.14 K, 32005 kPa	1472.1
323.14 K, 32035 kPa	1472.1
323.14 K, 32074 kPa	1472.2
323.14 K, 32106 kPa	1472.4
323.14 K, 32145 kPa	1472.5
323.14 K, 32183 kPa	1472.7
323.14 K, 32213 kPa	1472.9
323.14 K, 32256 kPa	1472.9
323.14 K, 32290 kPa	1473
323.14 K, 32334 kPa	1473.2
323.14 K, 32359 kPa	1473.2
323.14 K, 32392 kPa	1473.5
323.14 K, 32426 kPa	1473.5
323.14 K, 32453 kPa	1473.6
323.14 K, 32494 kPa	1473.7
323.14 K, 32530 kPa	1473.9
323.14 K, 32562 kPa	1474.1
323.14 K, 32595 kPa	1474.2
323.14 K, 32625 kPa	1474.2
323.14 K, 32718 kPa	1474.5
323.14 K, 32751 kPa	1474.7
323.14 K, 32788 kPa	1474.8
323.14 K, 32825 kPa	1475.1
323.14 K, 32856 kPa	1475.1
323.14 K, 32888 kPa	1475.2
323.14 K, 32921 kPa	1475.3
323.14 K, 32953 kPa	1475.5
323.14 K, 32985 kPa	1475.4
323.14 K, 33019 kPa	1475.7
323.14 K, 33051 kPa	1475.7
323.14 K, 33084 kPa	1475.8
323.14 K, 33112 kPa	1476.1
323.14 K, 33140 kPa	1476.1
323.14 K, 33174 kPa	1476.3
323.14 K, 33204 kPa	1476.4
323.14 K, 33237 kPa	1476.4
323.14 K, 33283 kPa	1476.6
323.14 K, 33320 kPa	1476.7
323.14 K, 33348 kPa	1476.8
323.14 K, 33380 kPa	1477
323.14 K, 33409 kPa	1477.2
323.14 K, 33451 kPa	1477.2
323.14 K, 33480 kPa	1477.5
323.14 K, 33527 kPa	1477.5
323.14 K, 33556 kPa	1477.6
323.14 K, 33594 kPa	1477.8
323.14 K, 33624 kPa	1477.9
323.14 K, 33659 kPa	1477.9
323.14 K, 33689 kPa	1477.9
323.14 K, 33733 kPa	1478.3
323.14 K, 33772 kPa	1478.3
323.14 K, 33801 kPa	1478.4
323.14 K, 33844 kPa	1478.5
323.14 K, 33873 kPa	1478.6
323.14 K, 33912 kPa	1478.8
323.14 K, 33947 kPa	1479
323.14 K, 33988 kPa	1479.1
323.14 K, 34019 kPa	1479.2
323.14 K, 34056 kPa	1479.3
323.14 K, 34088 kPa	1479.4
323.14 K, 34126 kPa	1479.7
323.14 K, 34164 kPa	1479.7
323.14 K, 34203 kPa	1479.9
323.14 K, 34254 kPa	1480
323.14 K, 34287 kPa	1480.1
323.14 K, 34318 kPa	1480.4
323.14 K, 34333 kPa	1480.4
323.14 K, 34347 kPa	1480.4
323.14 K, 34355 kPa	1480.4
323.14 K, 34365 kPa	1480.4
323.14 K, 34376 kPa	1480.5
323.14 K, 34382 kPa	1480.5
323.15 K, 2690 kPa	1295.1
323.15 K, 2710 kPa	1295.4
323.15 K, 2730 kPa	1295.6
323.15 K, 2750 kPa	1295.9
323.15 K, 2770 kPa	1296.1
323.15 K, 2790 kPa	1296.3
323.15 K, 2810 kPa	1296.6
323.15 K, 2860 kPa	1297.2
323.15 K, 3610 kPa	1305.8
323.15 K, 5700 kPa	1326.8
323.15 K, 5730 kPa	1327.1
323.15 K, 5750 kPa	1327.2
323.15 K, 5780 kPa	1327.6
323.15 K, 5810 kPa	1327.8
323.15 K, 5830 kPa	1328.1
323.15 K, 5860 kPa	1328.3
323.15 K, 5890 kPa	1328.7
323.15 K, 5920 kPa	1329.1
323.15 K, 5940 kPa	1329
323.15 K, 7941 kPa	1346.2
323.15 K, 7982 kPa	1346.7
323.15 K, 8005 kPa	1346.8
323.15 K, 8337 kPa	1349.4
323.15 K, 8351 kPa	1349.6
323.15 K, 8369 kPa	1349.8
323.15 K, 8474 kPa	1350.5
323.15 K, 8495 kPa	1350.7
323.15 K, 8516 kPa	1350.8
323.15 K, 8532 kPa	1351
323.15 K, 8553 kPa	1351.1
323.15 K, 8569 kPa	1351.3
323.15 K, 8597 kPa	1351.5
323.15 K, 8616 kPa	1351.8
323.15 K, 8637 kPa	1351.8
323.15 K, 8653 kPa	1351.9
323.15 K, 8674 kPa	1352.2
323.15 K, 8690 kPa	1352.3
323.15 K, 8713 kPa	1352.5
323.15 K, 8731 kPa	1352.6
323.15 K, 8753 kPa	1352.6
323.15 K, 8776 kPa	1352.9
323.15 K, 8792 kPa	1353.1
323.15 K, 8817 kPa	1353.1
323.15 K, 8836 kPa	1353.4
323.15 K, 8858 kPa	1353.5
323.15 K, 8877 kPa	1353.6
323.15 K, 8898 kPa	1353.8
323.15 K, 9724 kPa	1360
